The source of these data is PubChem BioAssay AID588620 (NMMLSC, 2011).

Activity calls are given as the source filed them.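 How the source made its calls: active means fitted half-maximal concentration below 30 µM for cell fluorescence in pump-free yeast, so likely self-fluorescent; inactive means the rest.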

Test system in the first experiment: not listed separately
Kind of experiment: concentration-dependent intrinsic compound fluorescence, S. cerevisiae AD/pABC3, flow cytometry, Cherry Pick1 hits, artefact control for antifungal efflux pump inhibitor project, dose response (AID 588620).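 Further: red emission of unstained cells excited at 488 nm measured in PE-Texas Red channel.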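 On fluorescence response, % of control: cell median fluorescence as percent of DMSO wells so 100% equals vehicle baseline.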 Conditions: S. cerevisiae AD/pABC3 compound autofluorescence, flow cytometry; at 33.1 µM (top of the series).
As to `O=C(c1ccoc1)N1CCC2(CC1)Oc1ccc(Cl)cc1C(=O)C21CC(c2ccc(Cl)cc2)=NO1` (stereo not given), the fluorescence response, % of control is 119% (inactive).

For the compound `OCCN1CCN(CC/C=C2/c3ccccc3Sc3ccc(C(F)(F)F)cc32)CC1`, the fluorescence response, % of control was 332% (inactive).

`COc1ccc(NC(=O)Nc2cccc3c2O[C@H](CN(C)C(=O)Nc2ccc(OC)cc2)[C@@H](C)CN([C@H](C)CO)C3=O)cc1`: the fluorescence response, % of control was 86% (inactive).

Take `COc1ccccc1-c1sc2cc3c(cc2c1-c1ccc(OCCN2CCOCC2)cc1)OCO3`: the fluorescence response, % of control is 87.6% (inactive).

Turning to `C[C@H]1CN([C@@H](C)CO)C(=O)c2cc(NC(=O)Nc3cccc4ccccc34)ccc2O[C@@H]1CN(C)Cc1ccc(-c2ccccc2)cc1`, the fluorescence response, % of control is 102% (inactive).

With `C[C@H](CO)N1C[C@H](C)[C@@H](CN(C)S(=O)(=O)c2ccccc2)Oc2c(NC(=O)Nc3ccccc3)cccc2C1=O`, the fluorescence response, % of control was 83.7% (inactive).

Take `O=C(NCCC1=CCCCC1)C1CCC(CNc2nc(=S)[nH]c3ccccc23)CC1` (stereo not given): the fluorescence response, % of control is 108% (inactive).

For `CCOc1ccccc1-c1nc(C(N)=O)c2[nH]c(=O)n(-c3ccccc3)c2n1`, the fluorescence response, % of control is 90.8% (inactive).

In the case of `CN(C(=O)c1ccc(NC(=O)c2ccco2)cc1)c1ccccc1`, the fluorescence response, % of control was 105% (inactive).

Turning to `Cc1cc(C(=O)NC2CC(C)(C)Cc3c2cnn3-c2ccc(F)cc2)no1` (stereo not given), the fluorescence response, % of control is 98.7% (inactive).

As for `COc1ccc(C(=O)NC2CCCc3c2cnn3-c2ccccc2F)o1` (stereo not given), the fluorescence response, % of control is 86.3% (inactive).

Consider `O=C(COC(=O)c1c2ccccc2cc2ccccc12)Nc1ncc(C(F)(F)F)cc1Cl`, for which the fluorescence response, % of control is 96.4% (inactive).

`COC(=O)C1=C(C)N=c2s/c(=C/c3ccoc3)c(=O)n2C1c1ccccc1` (stereo not given): the fluorescence response, % of control was 821% (inactive).

For the compound `O=C(NCC1CCCO1)c1ccc(Br)c(S(=O)(=O)N2CCOCC2)c1` (stereo not given), the fluorescence response, % of control was 96.3% (inactive).

With `Cc1nn(CC(=O)NCc2cccs2)c(=O)c2nn(-c3ccccc3)c(C)c12`, the fluorescence response, % of control was 99% (inactive).

On to `CC(=O)Nc1ccc(NC(=O)Cc2ccc(F)cc2)cc1`, for which the fluorescence response, % of control was 106% (inactive).

Turning to `Cc1ccc2nc(-c3ccccc3)cc(C(=O)N3CCN(S(=O)(=O)c4c(C)noc4C)CC3)c2c1`, the fluorescence response, % of control was 109% (inactive).

As for `O=C(Cn1c(COc2ccccc2)nc2ccccc21)Nc1cc(Cl)c(Cl)cc1Cl`, the fluorescence response, % of control was 87.6% (inactive).

For the compound `COc1cc(/C=C(\C#N)c2nc3ccccc3n2C)cc(OC)c1O`, the fluorescence response, % of control was 333% (inactive).

For `COc1ccc(-c2[nH]c(-c3ccc4c(c3)OCO4)nc2-c2ccccc2)cc1`, the fluorescence response, % of control was 80.8% (inactive).

With `O=C1C(Cc2ccccc2)Nc2ncnc(N3CCN(c4ccccc4)CC3)c2N1Cc1ccccc1` (stereo not given), the fluorescence response, % of control was 105% (inactive).

Consider `O=C(c1ccoc1)N1CCC2(CC1)Oc1ccc(F)cc1C(=O)C21CC(c2ccc(Cl)cc2)=NO1` (stereo not given), for which the fluorescence response, % of control was 116% (inactive).

For `CC(C)(C)C(=O)CSc1nc2c(c(-c3cccs3)c1C#N)CCC2`, the fluorescence response, % of control was 92.4% (inactive).

In the next experiment the test system is S. cerevisiae AD/pABC3 compound autofluorescence, flow cytometry. Described as above.
Settings: not given
A word on the EC50: it is the concentration that produces a half-maximal response. Consider `COc1ccc(OC)c2c1C(=O)C(Cl)=C(Cl)C2=O`, for which the EC50 is 0.495 µM.

For the compound `O=C1/C(=C/c2ccco2)Oc2c1ccc(O)c2CN1CCCCC1`, the EC50 is 6.07 µM.

Regarding `O=[N+]([O-])c1ccc(N2N=C(c3ccco3)CC2c2ccccc2)cc1` (stereo not given), the concentration giving a half-maximal response (EC50) is 18.3 µM.

Take `Cc1ccc2nc(/C(C#N)=C/c3ccc(O)c(O)c3)[nH]c2c1`: the 50% effective concentration (EC50) is 5.32 µM.

As to `C=CCn1c(=O)[nH]c2nc3cc(N=CN(C)C)c(C)cc3nc2c1=O`, the EC50 was 5.13 µM.

With `CCOc1ccc(NC(=O)CSc2nnc(Cc3cccn3C)n2-c2ccc(F)cc2)cc1`, the concentration giving a half-maximal response (EC50) was 13.6 µM.

For `C[C@@]12C(=O)Nc3cc(F)c(F)cc3C(=O)N1[C@H]1c3cc(Cl)ccc3OC[C@@H]1[C@@H]2c1ccccc1`, the concentration for a half-maximal effect (EC50) is 12.3 µM.

For `Cc1ccc(/C=C2\CCC3=C2OC(N)=C(C#N)C3c2ccc(C)cc2)cc1` (stereo not given), the EC50 is 9.04 µM.

For `Cc1nn(Cc2cccc(C(=O)NC34CC5CC(CC(C5)C3)C4)c2)c(C)c1Br`, the 50% effective concentration (EC50) is 4.45 µM.

With `COc1cc2sc(-c3ccccc3OC)c(-c3ccc(OCCN4CCOCC4)cc3)c2cc1OC`, the 50% effective concentration (EC50) was 17.2 µM.

With `COc1ccccc1-c1nc(C(N)=O)c2[nH]c(=O)n(-c3cccc(C)c3)c2n1`, the concentration giving a half-maximal response (EC50) was 10.9 µM.

Turning to `Cc1nc2ccccc2n1CCc1nc2c3ccccc3nc(SCC(=O)NCc3ccco3)n2n1`, the concentration giving a half-maximal response (EC50) was 12.2 µM.
